Reference: patent publication US12156880B2, “Heterocyclic RIP1 kinase inhibitors” (Rigel Pharmaceuticals, Inc., priority 2021, dated 2024)

Key:
[1] = system: L929 cells; experiment: L929 cell necroptosis assay (TNFa + zVAD, CellTiter-Glo recovery); type: cell-based, murine; settings: Mus musculus, L929, 18 h, TNFa 2 ng/mL + zVAD-fmk, read-out: L929-CTG-recovery, L929, TNFa + zVAD (IC50)
In short: (§1)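 Human U937 (50K/well, 60 uM zVAD-fmk medium, plated same day) or murine L929 (10K/well, plated 18 h, then 40 uM zVAD-fmk medium) were grown in RPMI with 10% FBS. Both were pretreated with compound for 1 h at 37 °C before TNFa at 2 ng/mL final. Viability was read by CellTiter-Glo luminescence after 18 h.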

[2] = system: U937 cells; experiment: U937 cell necroptosis assay (TNFa + zVAD, CellTiter-Glo recovery); type: cell-based; settings: Homo sapiens, U-937, 18 h, TNFa 2 ng/mL + zVAD-fmk, read-out: U937 Zvad TNF CTG Recovery, U937, TNFa + zVAD (IC50)
In short: as §1

[3] = target: T1, RIPK1 (Homo sapiens, UniProt Q13546); experiment: RIPK1 ADP-Glo biochemical kinase assay; settings: read-out: RIPK1 ADP-Glo Kinase (IC50)
T1 sequence (Q13546 1-671): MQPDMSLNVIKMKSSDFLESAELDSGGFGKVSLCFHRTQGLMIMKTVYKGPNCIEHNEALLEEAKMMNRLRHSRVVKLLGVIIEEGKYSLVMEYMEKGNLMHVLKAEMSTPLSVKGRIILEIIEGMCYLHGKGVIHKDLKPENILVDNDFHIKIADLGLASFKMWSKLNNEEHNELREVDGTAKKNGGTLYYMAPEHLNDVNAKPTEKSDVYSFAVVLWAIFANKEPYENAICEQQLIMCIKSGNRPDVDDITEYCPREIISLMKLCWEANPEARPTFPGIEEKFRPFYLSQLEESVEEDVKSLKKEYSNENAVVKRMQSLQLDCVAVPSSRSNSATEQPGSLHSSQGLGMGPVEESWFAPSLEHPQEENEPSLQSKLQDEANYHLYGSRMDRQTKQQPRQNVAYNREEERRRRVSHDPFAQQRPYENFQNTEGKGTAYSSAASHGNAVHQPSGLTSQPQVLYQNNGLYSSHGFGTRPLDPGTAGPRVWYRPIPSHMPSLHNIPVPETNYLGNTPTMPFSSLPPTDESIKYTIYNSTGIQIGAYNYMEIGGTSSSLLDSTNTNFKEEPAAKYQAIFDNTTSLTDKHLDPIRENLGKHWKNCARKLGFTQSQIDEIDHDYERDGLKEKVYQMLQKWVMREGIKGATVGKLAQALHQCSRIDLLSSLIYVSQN
In short: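 RIPK1 at 31 ng/well in Tris pH 7.4 buffer with MgCl2, BSA, DTT and MnCl2, reacted with compounds (duplicate) for 30 min at 30 °C. ADP formed detected by ADP-Glo: 40 min stop/depletion, then 30 min detection reagent at room temperature; luminescence read.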

SMILES | IC50 [3] [nM] | IC50 [1] [nM] | IC50 [2] [nM]
CN1C(=O)[C@@H](NC(=O)c2cc(Oc3cccnc3F)ccn2)COc2ccc(C#CC3(O)CCC3)cc21 [I-83, (S)-4-((2-fluoropyridin-3-yl)oxy)-N-(7-((1-hydroxycyclobutyl)ethynyl)-5-methyl-4-oxo-2,3,4,5-tetrahydrobenzo[b][1,4]oxazepin-3-yl)picolinamide] | 19.1 | 218 | 1.4
CN1C(=O)[C@@H](NC(=O)c2cc(Oc3cccnc3C(F)(F)F)ccn2)COc2ccc(C#CC(C)(C)O)cc21 [I-87, (S)—N-(7-(3-hydroxy-3-methylbut-1-yn-1-yl)-5-methyl-4-oxo-2,3,4,5-tetrahydrobenzo[b][1,4]oxazepin-3-yl)-4-((2-(trifluoromethyl)pyridin-3-yl)oxy)picolinamide] | 51.3 | 11200 | 536
Cc1nc(Cc2ccnc(C(=O)N[C@H]3COc4ccc(C#CC5CCOCC5)cc4N(C)C3=O)c2)cs1 [I-90, (S)—N-(5-methyl-4-oxo-7-((tetrahydro-2H-pyran-4-yl)ethynyl)-2,3,4,5-tetrahydrobenzo[b][1,4]oxazepin-3-yl)-4-((2-methylthiazol-4-yl)methyl)picolinamide] | 20 | 20.5 | 1.9
CN1C(=O)[C@@H](NC(=O)c2cc(Oc3cccnc3C#N)ccn2)COc2ccc(C#CC(C)(C)O)cc21 [I-91, (S)-4-((2-cyanopyridin-3-yl)oxy)-N-(7-(3-hydroxy-3-methylbut-1-yn-1-yl)-5-methyl-4-oxo-2,3,4,5-tetrahydrobenzo[b][1,4]oxazepin-3-yl)picolinamide] | 101 | 9530 | 290
CN1C(=O)[C@@H](NC(=O)c2cc(Oc3cccnc3F)ccn2)COc2ccc(C#CC(C)(C)C)cc21 [I-95, (S)—N-(7-(3,3-dimethylbut-1-yn-1-yl)-5-methyl-4-oxo-2,3,4,5-tetrahydrobenzo[b][1,4]oxazepin-3-yl)-4-((2-fluoropyridin-3-yl)oxy)picolinamide] | 63.4 | 354 | 3.2
Cc1nc(Cc2ccnc(C(=O)N[C@H]3COc4ccc(C#CC(C)(C)C)cc4N(C)C3=O)c2)cs1 [I-96, (S)—N-(7-(3,3-dimethylbut-1-yn-1-yl)-5-methyl-4-oxo-2,3,4,5-tetrahydrobenzo[b][1,4]oxazepin-3-yl)-4-((2-methylthiazol-4-yl)methyl)picolinamide] | 396 | 242 | 84.2
CCc1nc(Cc2ccnc(C(=O)N[C@H]3COc4ccc(C#CC(C)(C)O)cc4N(C)C3=O)c2)cs1 [I-98, (S)-4-((2-ethylthiazol-4-yl)methyl)-N-(7-(3-hydroxy-3-methylbut-1-yn-1-yl)-5-methyl-4-oxo-2,3,4,5-tetrahydrobenzo[b][1,4]oxazepin-3-yl)picolinamide] | 24 | 111 | 15.5
CN1C(=O)[C@@H](NC(=O)c2cc(Oc3cncc(F)c3)ccn2)COc2ccc(C#CC3(O)CCC3)cc21 [I-100, (S)-4-((5-fluoropyridin-3-yl)oxy)-N-(7-((1-hydroxycyclobutyl)ethynyl)-5-methyl-4-oxo-2,3,4,5-tetrahydrobenzo[b][1,4]oxazepin-3-yl)picolinamide] | 28 | 1100 | 4.1
CN1C(=O)[C@@H](NC(=O)c2cc(Oc3cncc(F)c3)ccn2)COc2ccc(C#CC(C)(C)C)cc21 [I-101, (S)—N-(7-(3,3-dimethylbut-1-yn-1-yl)-5-methyl-4-oxo-2,3,4,5-tetrahydrobenzo[b][1,4]oxazepin-3-yl)-4-((5-fluoropyridin-3-yl)oxy)picolinamide] | 55.2 | 1580 | 9.1
CN1C(=O)[C@@H](NC(=O)c2cc(Oc3cccnc3)ccn2)COc2ccc(C#CC(C)(C)C)cc21 [I-102, (S)—N-(7-(3,3-dimethylbut-1-yn-1-yl)-5-methyl-4-oxo-2,3,4,5-tetrahydrobenzo[b][1,4]oxazepin-3-yl)-4-(pyridin-3-yloxy)picolinamide] | 29.5 | 645 | 7.5

Further lines, with some results ahead:

IC50 [3] [nM] | SMILES | IC50 [1] [nM] | IC50 [2] [nM]
19.3 | CN1C(=O)[C@@H](NC(=O)c2cc(Cc3cccc(F)n3)ccn2)COc2ccc(C#CC3COC3)cc21 [I-84, (S)-4-((6-fluoropyridin-2-yl)methyl)-N-(5-methyl-7-(oxetan-3-ylethynyl)-4-oxo-2,3,4,5-tetrahydrobenzo[b][1,4]oxazepin-3-yl)picolinamide] | 768 | 9.4
20.6 | Cc1nc(Cc2ccnc(C(=O)N[C@H]3COc4ccc(C#CC5COC5)cc4N(C)C3=O)c2)cs1 [I-85, (S)—N-(5-methyl-7-(oxetan-3-ylethynyl)-4-oxo-2,3,4,5-tetrahydrobenzo[b][1,4]oxazepin-3-yl)-4-((2-methylthiazol-4-yl)methyl)picolinamide] | 252 | 15.8
56.3 | CN1C(=O)[C@@H](NC(=O)c2cc(Oc3cccnc3C(F)(F)F)ccn2)COc2ccc(C#CC3(O)COC3)cc21 [I-88, (S)—N-(7-((3-hydroxyoxetan-3-yl)ethynyl)-5-methyl-4-oxo-2,3,4,5-tetrahydrobenzo[b][1,4]oxazepin-3-yl)-4-((2-(trifluoromethyl)pyridin-3-yl)oxy)picolinamide] | 10600 | 133
20.8 | CN1C(=O)[C@@H](NC(=O)c2cc(Oc3cccnc3C#N)ccn2)COc2ccc(C#CC3(O)COC3)cc21 [I-92, (S)-4-((2-cyanopyridin-3-yl)oxy)-N-(7-((3-hydroxyoxetan-3-yl)ethynyl)-5-methyl-4-oxo-2,3,4,5-tetrahydrobenzo[b][1,4]oxazepin-3-yl)picolinamide] | 7870 | 158
29.9 | CN1C(=O)[C@@H](NC(=O)c2cc(Cc3cccc(C#N)n3)ccn2)COc2ccc(C#CC(C)(C)O)cc21 [I-93, (S)-4-((6-cyanopyridin-2-yl)methyl)-N-(7-(3-hydroxy-3-methylbut-1-yn-1-yl)-5-methyl-4-oxo-2,3,4,5-tetrahydrobenzo[b][1,4]oxazepin-3-yl)picolinamide] | 5670 | 52.2
18 | CN1C(=O)[C@@H](NC(=O)c2cc(Cc3cccc(C#N)n3)ccn2)COc2ccc(C#CC3(O)COC3)cc21 [I-94, (S)-4-((6-cyanopyridin-2-yl)methyl)-N-(7-((3-hydroxyoxetan-3-yl)ethynyl)-5-methyl-4-oxo-2,3,4,5-tetrahydrobenzo[b][1,4]oxazepin-3-yl)picolinamide] | 3790 | 23.7
83.2 | CN1C(=O)[C@@H](NC(=O)c2cc(Cc3cccc(F)n3)ccn2)COc2ccc(C#CC(C)(C)C)cc21 [I-97, (S)—N-(7-(3,3-dimethylbut-1-yn-1-yl)-5-methyl-4-oxo-2,3,4,5-tetrahydrobenzo[b][1,4]oxazepin-3-yl)-4-((6-fluoropyridin-2-yl)methyl)picolinamide] | 386 | 16.4
26.7 | CCc1nc(Cc2ccnc(C(=O)N[C@H]3COc4ccc(C#CC5(O)COC5)cc4N(C)C3=O)c2)cs1 [I-99, (S)-4-((2-ethylthiazol-4-yl)methyl)-N-(7-((3-hydroxyoxetan-3-yl)ethynyl)-5-methyl-4-oxo-2,3,4,5-tetrahydrobenzo[b][1,4]oxazepin-3-yl)picolinamide] | 225 | 26.8
15.4 | Cc1cccc(Cc2cnn(C(=O)N[C@H]3COc4ccc(C#CC5(O)COC5)cc4N(C)C3=O)c2)n1 [I-103, (S)—N-(7-((3-Hydroxyoxetan-3-yl)ethynyl)-5-methyl-4-oxo-2,3,4,5-tetrahydrobenzo[b][1,4]oxazepin-3-yl)-4-((6-methylpyridin-2-yl)methyl)-1H-pyrazole-1-carboxamide] | 1290 | 105
22.4 | CN1C(=O)[C@@H](NC(=O)n2cc(Cc3cccc(F)n3)cn2)COc2ccc(C#CC(C)(C)C)cc21 [I-106, (S)—N-(7-(3,3-Dimethylbut-1-yn-1-yl)-5-methyl-4-oxo-2,3,4,5-tetrahydrobenzo[b][1,4]oxazepin-3-yl)-4-((6-fluoropyridin-2-yl)methyl)-1H-pyrazole-1-carboxamide] | 750 | 4.3
